What was measured:
[1] = target: cell wall binding domain of the endolysin PlyG (Bacillus phage Gamma, UniProt Q8LTE6); assay: biochemical; design: species or system Bacillus anthracis bacteriophage
[2] = target: cell wall binding domain of the endolysin PlyL (Bacillus anthracis, UniProt A0A6H3AMF3); assay: biochemical; design: species or system Bacillus anthracis bacteriophage
cell wall binding domain of the endolysin PlyL, sequence (A0A6H3AMF3 160-234 limits assumed): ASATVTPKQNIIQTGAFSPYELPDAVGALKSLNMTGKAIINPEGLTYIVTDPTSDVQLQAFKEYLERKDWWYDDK

cell wall binding domain of the endolysin PlyG, sequence (Q8LTE6 166-233 limits assumed): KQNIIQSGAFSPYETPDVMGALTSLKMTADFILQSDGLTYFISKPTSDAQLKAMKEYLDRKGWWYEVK

## CC(=O)N[C@@H]1[C@H](O[C@H]2[C@H](O)[C@@H](NC(C)=O)[C@H](OCCCCCN)O[C@@H]2CO)O[C@H](CO)[C@@H](O)[C@@H]1O [Compound 6]
[1]
  Kd: 49 ± 2 µM
[2]
  Kd: 110 ± 9 µM

## CC(=O)N[C@@H]1[C@H](O[C@H]2[C@H](O)[C@@H](NC(C)=O)[C@H](OCCCCCN)O[C@@H]2CO)O[C@H](CO)[C@@H](O[C@H]2O[C@H](CO)[C@@H](O[C@@H]3O[C@H](CO)[C@H](O)[C@H](O)[C@H]3O)[C@H](O)[C@H]2NC(C)=O)[C@@H]1O [Compound 3]
[1]
  Kd: 2.1 ± 1.1 µM
[2]
  Kd: 1.1 µM
  binding to PlyL in words: exceptional high affinity

## CC(=O)N[C@@H]1[C@H](O[C@H]2[C@H](O[C@H]3O[C@H](CO)[C@H](O)[C@H](O)[C@H]3O)[C@@H](NC(C)=O)[C@H](OCCCCCN)O[C@@H]2CO)O[C@H](CO)[C@@H](O[C@H]2O[C@H](CO)[C@@H](O)[C@H](O)[C@H]2NC(C)=O)[C@@H]1O [Compound 5]
[1]
  Kd: 4.1 ± 0.5 µM
[2]
  Kd: 6.2 ± 2 µM

## CC(=O)N[C@@H]1[C@H](O[C@H]2[C@H](O[C@H]3O[C@H](CO)[C@H](O)[C@H](O)[C@H]3O)[C@@H](NC(C)=O)[C@H](OCCCCCN)O[C@@H]2CO)O[C@H](CO)[C@@H](O[C@H]2O[C@H](CO)[C@@H](O[C@@H]3O[C@H](CO)[C@H](O)[C@H](O)[C@H]3O)[C@H](O[C@H]3O[C@H](CO)[C@H](O)[C@H](O)[C@H]3O)[C@H]2NC(C)=O)[C@@H]1O [Compound 1]
[1]
  Kd: 23.3 ± 0.5 µM
[2]
  Kd: 23 ± 2 µM
  fold reduced affinity compared to tetrasaccharide 3: 10 fold

## CC(=O)N[C@@H]1[C@H](O[C@H]2[C@H](O)[C@@H](NC(C)=O)[C@H](OCCCCCN)O[C@@H]2CO)O[C@H](CO)[C@@H](O[C@H]2O[C@H](CO)[C@@H](O)[C@H](O)[C@H]2NC(C)=O)[C@@H]1O [Compound 2]
[1]
  Kd: 8.6 ± 0.4 µM
[2]
  Kd: 13.5 µM

## CC(=O)N[C@@H]1[C@H](O[C@H]2[C@H](O)[C@@H](NC(C)=O)[C@H](OCCCCCN)O[C@@H]2CO)O[C@H](CO)[C@@H](O[C@H]2O[C@H](CO)[C@H](O)[C@H](O)[C@H]2NC(C)=O)[C@@H]1O [Compound 7]
[1]
  Kd: 19.5 ± 7.5 µM
[2]
  Kd: 43 ± 11 µM

## CC(=O)N[C@@H]1[C@H](O[C@H]2[C@H](O)[C@@H](NC(C)=O)[C@H](OCCCCCN)O[C@@H]2CO)O[C@H](CO)[C@@H](O[C@H]2O[C@H](CO)[C@@H](O)[C@H](O[C@H]3O[C@H](CO)[C@H](O)[C@H](O)[C@H]3O)[C@H]2NC(C)=O)[C@@H]1O [Compound 4]
[1]
  Kd: 136 ± 7 µM
[2]
  Kd: 153 ± 10 µM
  binding to PlyL in words: complexed poorly with the protein
